Measurements from patent publication US20130123494A1, “COMPLEX COMPOUND AND OPTICAL RECORDING MEDIUM CONTAINING SAME” (KH NEOCHEM CO., LTD., priority 2010, published 2013).

Assays:
Type in all cases: physicochemical
[1] = Lightfastness test of thin films; settings: thin film on glass plate, UV fluorescent lamps 15 W/m^2, 45° C., 10 hours
From the text: Thin films of Complex Compounds (2) to (5), (7), (9) to (11), (13) to (21), (24), (26), (28), (30), (31), and (33) were respectively obtained similarly to the film-forming test except that a glass plate (manufactured by Taiyu Kizai Co., Ltd.; 2 cm×2 cm; thickness: 2 mm) was used as the substrates instead of the plate made of polycarbonate resin. Using a dewpanel light control weather meter DPWL-5R, manufactured by Suga Test Instruments Co., Ltd., which was equipped with ultraviolet fluorescent lamps (SUGA-FS40, manufactured by Suga Test Instruments Co., Ltd., having a peak wavelength of 313 nm and an illuminance distribution of 282 nm to 373 nm), light was irradiated on the thin films with an amount of light of 15 W/m^2 at 45° C. for 10 hours. Ultraviolet-visible absorption spectra of the thin film before and after the lightfastness test were measured using a spectrophotometer.
Here, the absorption maximum wavelength after lightfastness test denotes an absorption maximum wavelength in the absorption spectrum after the lightfastness test.

[2] = Moisture- and heat-resistances test of thin films; settings: thin film, 80° C., relative humidity 80%, 100 hours
Description: Similarly to the film-forming test, thin films of Complex Compounds (2) to (5), (7), (9) to (11), (13) to (21), (24), (26), (28), (30), (31), and (33) were respectively obtained. Using a constant temperature and humidity chamber, KHWII-40HP, manufactured by Satake Chemical Equipment Mfg Ltd., the thin films were exposed in the atmosphere having a temperature of 80° C. and a relative humidity of 80% for 100 hours. Ultraviolet-visible absorption spectra of the thin films before and after the moisture- and heat-resistances test were measured using a spectrophotometer. […] Here, the absorption maximum wavelength after the moisture- and heat-resistances test denotes the absorption maximum wavelength in an absorption spectrum after the moisture- and heat-resistances test.

[3] = Test of storage stability in solution; settings: 13 mg in 1 mL TFP, brown bottle, 25° C., 3 days; 1250-fold diluted for measurement
Description: Each of 13 mg of Complex Compounds (2) to (5), (7), (9) to (11), (13) to (21), (24), (26), (28), (30), (31), and (33) was dissolved in 1 mL of TFP, which was filtered with a filter made of TEFLON (registered trademark) (manufactured by Whatman, having a pore diameter of 0.20 μm), and solutions of Complex Compounds (2) to (5), (7), (9) to (11), (13) to (21), (24), (26), (28), (30), (31), and (33) were respectively obtained. Each of the obtained solutions was transferred to a brown bottle with a lid and stored at 25° C. for 3 days. Before and after the storage stability test, using a spectrophotometer, 1250-fold diluted solutions of Complex Compounds (2) to (5), (7), (9) to (11), (13) to (21), (24), (26), (28), (30), (31), and (33), respectively, were measured for their ultraviolet-visible absorption spectra. […] Here, the absorption maximum wavelength after the storage stability test is the absorption maximum wavelength in the absorption spectrum after the storage stability test.

In the case of CCn1c([O-])c(/C=N/[N-]c2ncccn2)c(C)c(C#N)c1=O.CCn1c([O-])c(/C=N/[N-]c2ncccn2)c(C)c(C#N)c1=O.CCn1c([O-])c(/C=N/[N-]c2ncccn2)c(C)c(C#N)c1=O.CCn1c([O-])c(/C=N/[N-]c2ncccn2)c(C)c(C#N)c1=O.Oc1ccc(-c2ccccc2)cc1-[n+]1ccc(-c2cc[n+](-c3cc(-c4ccccc4)ccc3O)cc2)cc1.[Co+3].[Co+3] [Complex Compound (7)], the “I^a/I^a0 (absorbance ratio at absorption maximum after/before lightfastness test)” value [1] is reported as 0.99, the “I^b/I^b0 (absorbance ratio at absorption maximum after/before moisture- and heat-resistances test)” value [2] is reported as 1.00 and the “Δλmax(b) (change in absorption maximum wavelength)” value [2] is reported as 0 nm. For the same compound, the “I^c/I^c0 (absorbance ratio at absorption maximum after/before storage stability test)” value [3] was 1.00 and the “Δλmax(c) (change in absorption maximum wavelength)” value [3] was 0 nm.

For CCn1c([O-])c(/C=N/[N-]C(=O)c2ccc(C(F)(F)F)cc2)c(C)c(C#N)c1=O.CCn1c([O-])c(/C=N/[N-]C(=O)c2ccc(C(F)(F)F)cc2)c(C)c(C#N)c1=O.CCn1c([O-])c(/C=N/[N-]C(=O)c2ccc(C(F)(F)F)cc2)c(C)c(C#N)c1=O.CCn1c([O-])c(/C=N/[N-]C(=O)c2ccc(C(F)(F)F)cc2)c(C)c(C#N)c1=O.Oc1ccc(-c2ccccc2)cc1-[n+]1ccc(-c2cc[n+](-c3cc(-c4ccccc4)ccc3O)cc2)cc1.[Co+3].[Co+3] [Complex Compound (9)], the “I^a/I^a0 (absorbance ratio at absorption maximum after/before lightfastness test)” value [1] was 0.97, the “I^b/I^b0 (absorbance ratio at absorption maximum after/before moisture- and heat-resistances test)” value [2] was 1.00 and the “Δλmax(b) (change in absorption maximum wavelength)” value [2] was 0 nm. For the same compound, the “I^c/I^c0 (absorbance ratio at absorption maximum after/before storage stability test)” value [3] was 1.00 and the “Δλmax(c) (change in absorption maximum wavelength)” value [3] was 0 nm.

With CCn1c([O-])c(/C=N/[N-]C(=O)c2ccc(C(F)(F)F)cc2)c(C)c(C#N)c1=O.CCn1c([O-])c(/C=N/[N-]C(=O)c2ccc(C(F)(F)F)cc2)c(C)c(C#N)c1=O.CCn1c([O-])c(/C=N/[N-]C(=O)c2ccc(C(F)(F)F)cc2)c(C)c(C#N)c1=O.CCn1c([O-])c(/C=N/[N-]C(=O)c2ccc(C(F)(F)F)cc2)c(C)c(C#N)c1=O.[Co+3].[Co+3].c1cc2ccc3ccc[n+]4c3c2[n+](c1)CCC4 [Complex Compound (10)] the “I^a/I^a0 (absorbance ratio at absorption maximum after/before lightfastness test)” value [1] was 0.99, the “I^b/I^b0 (absorbance ratio at absorption maximum after/before moisture- and heat-resistances test)” value [2] was 1.00 and the “Δλmax(b) (change in absorption maximum wavelength)” value [2] was 0.5 nm. The “I^c/I^c0 (absorbance ratio at absorption maximum after/before storage stability test)” value [3] was 1.00 and the “Δλmax(c) (change in absorption maximum wavelength)” value [3] was 0 nm.

In the case of CCn1c([O-])c(/C=N/[N-]C(=O)c2ccc(C(F)(F)F)cc2)c(C)c(C#N)c1=O.CCn1c([O-])c(/C=N/[N-]C(=O)c2ccc(C(F)(F)F)cc2)c(C)c(C#N)c1=O.CCn1c([O-])c(/C=N/[N-]C(=O)c2ccc(C(F)(F)F)cc2)c(C)c(C#N)c1=O.CCn1c([O-])c(/C=N/[N-]C(=O)c2ccc(C(F)(F)F)cc2)c(C)c(C#N)c1=O.[Co+3].[Co+3].c1cc[n+]2c(c1)-c1cccc[n+]1CCC2 [Complex Compound (11)], the “I^a/I^a0 (absorbance ratio at absorption maximum after/before lightfastness test)” value [1] is reported as 0.97, the “I^b/I^b0 (absorbance ratio at absorption maximum after/before moisture- and heat-resistances test)” value [2] is reported as 1.00 and the “Δλmax(b) (change in absorption maximum wavelength)” value [2] is reported as 0 nm. For the same compound, the “I^c/I^c0 (absorbance ratio at absorption maximum after/before storage stability test)” value [3] was 1.00 and the “Δλmax(c) (change in absorption maximum wavelength)” value [3] was 0 nm.

With Cc1c(/C=N/[N-]c2nnnn2-c2ccccc2)c([O-])n(CC(C)C)c(=O)c1C#N.Cc1c(/C=N/[N-]c2nnnn2-c2ccccc2)c([O-])n(CC(C)C)c(=O)c1C#N.Cc1c(/C=N/[N-]c2nnnn2-c2ccccc2)c([O-])n(CC(C)C)c(=O)c1C#N.Cc1c(/C=N/[N-]c2nnnn2-c2ccccc2)c([O-])n(CC(C)C)c(=O)c1C#N.[Co+3].[Co+3].c1cc[n+]2c(c1)-c1cccc[n+]1CCC2 [Complex Compound (14)] the “I^a/I^a0 (absorbance ratio at absorption maximum after/before lightfastness test)” value [1] was 0.92, the “I^b/I^b0 (absorbance ratio at absorption maximum after/before moisture- and heat-resistances test)” value [2] was 1.00 and the “Δλmax(b) (change in absorption maximum wavelength)” value [2] was 0 nm. For the same compound, the “I^c/I^c0 (absorbance ratio at absorption maximum after/before storage stability test)” value [3] was 1.01 and the “Δλmax(c) (change in absorption maximum wavelength)” value [3] was 0 nm.

For Cc1c(/C=N/[N-]c2nnnn2-c2ccccc2)c([O-])n(CC(C)C)c(=O)c1C#N.Cc1c(/C=N/[N-]c2nnnn2-c2ccccc2)c([O-])n(CC(C)C)c(=O)c1C#N.[Co+3].c1ccc(-c2nn(-c3ccccc3)[n+](-c3ccccc3)n2)cc1 [Complex Compound (15)], the “I^a/I^a0 (absorbance ratio at absorption maximum after/before lightfastness test)” value [1] was 0.88, the “I^b/I^b0 (absorbance ratio at absorption maximum after/before moisture- and heat-resistances test)” value [2] was 1.00 and the “Δλmax(b) (change in absorption maximum wavelength)” value [2] was 0 nm. The “I^c/I^c0 (absorbance ratio at absorption maximum after/before storage stability test)” value [3] was 1.01 and the “Δλmax(c) (change in absorption maximum wavelength)” value [3] was 0 nm.

In the case of Cc1c(/C=N/[N-]c2nnnn2-c2ccccc2)c([O-])n(CC(C)C)c(=O)c1C#N.Cc1c(/C=N/[N-]c2nnnn2-c2ccccc2)c([O-])n(CC(C)C)c(=O)c1C#N.Cc1c(/C=N/[N-]c2nnnn2-c2ccccc2)c([O-])n(CC(C)C)c(=O)c1C#N.Cc1c(/C=N/[N-]c2nnnn2-c2ccccc2)c([O-])n(CC(C)C)c(=O)c1C#N.[Co+3].[Co+3].c1ccc2c[n+](CCCCCCCCCC[n+]3ccc4ccccc4c3)ccc2c1 [Complex Compound (16)], the “I^a/I^a0 (absorbance ratio at absorption maximum after/before lightfastness test)” value [1] is reported as 0.90, the “I^b/I^b0 (absorbance ratio at absorption maximum after/before moisture- and heat-resistances test)” value [2] is reported as 1.00 and the “Δλmax(b) (change in absorption maximum wavelength)” value [2] is reported as 0 nm. The “I^c/I^c0 (absorbance ratio at absorption maximum after/before storage stability test)” value [3] was 1.01 and the “Δλmax(c) (change in absorption maximum wavelength)” value [3] was 0 nm.

In the case of Cc1c(/C=N/[N-]c2nnnn2-c2ccccc2)c([O-])n(CC(C)C)c(=O)c1C#N.Cc1c(/C=N/[N-]c2nnnn2-c2ccccc2)c([O-])n(CC(C)C)c(=O)c1C#N.Cc1c(/C=N/[N-]c2nnnn2-c2ccccc2)c([O-])n(CC(C)C)c(=O)c1C#N.Cc1c(/C=N/[N-]c2nnnn2-c2ccccc2)c([O-])n(CC(C)C)c(=O)c1C#N.[Co+3].[Co+3].c1ccc2c[n+](CCCCCC[n+]3ccc4ccccc4c3)ccc2c1 [Complex Compound (17)], the “I^a/I^a0 (absorbance ratio at absorption maximum after/before lightfastness test)” value [1] is reported as 0.88, the “I^b/I^b0 (absorbance ratio at absorption maximum after/before moisture- and heat-resistances test)” value [2] is reported as 0.98 and the “Δλmax(b) (change in absorption maximum wavelength)” value [2] is reported as 0 nm. The “I^c/I^c0 (absorbance ratio at absorption maximum after/before storage stability test)” value [3] was 0.98 and the “Δλmax(c) (change in absorption maximum wavelength)” value [3] was 0 nm.

With COc1ccc2cc3[n+](cc2c1OC)CCc1cc2c(cc1-3)OCO2.Cc1c(/C=N/[N-]c2nnnn2-c2ccccc2)c([O-])n(CC(C)C)c(=O)c1C#N.Cc1c(/C=N/[N-]c2nnnn2-c2ccccc2)c([O-])n(CC(C)C)c(=O)c1C#N.[Co+3] [Complex Compound (18)] the “I^a/I^a0 (absorbance ratio at absorption maximum after/before lightfastness test)” value [1] was 0.90, the “I^b/I^b0 (absorbance ratio at absorption maximum after/before moisture- and heat-resistances test)” value [2] was 1.00 and the “Δλmax(b) (change in absorption maximum wavelength)” value [2] was 0 nm. The “I^c/I^c0 (absorbance ratio at absorption maximum after/before storage stability test)” value [3] was 1.00 and the “Δλmax(c) (change in absorption maximum wavelength)” value [3] was 0 nm.

For Cc1c(/C=N/[N-]c2nnnn2-c2ccccc2)c([O-])n(CC(C)C)c(=O)c1C#N.Cc1c(/C=N/[N-]c2nnnn2-c2ccccc2)c([O-])n(CC(C)C)c(=O)c1C#N.Cc1c(/C=N/[N-]c2nnnn2-c2ccccc2)c([O-])n(CC(C)C)c(=O)c1C#N.Cc1c(/C=N/[N-]c2nnnn2-c2ccccc2)c([O-])n(CC(C)C)c(=O)c1C#N.[Co+3].[Co+3].c1ccc2c(c1)ccc[n+]2CCCC[n+]1cccc2ccccc21 [Complex Compound (21)], the “I^a/I^a0 (absorbance ratio at absorption maximum after/before lightfastness test)” value [1] was 0.87, the “I^b/I^b0 (absorbance ratio at absorption maximum after/before moisture- and heat-resistances test)” value [2] was 1.00 and the “Δλmax(b) (change in absorption maximum wavelength)” value [2] was 0.5 nm. The “I^c/I^c0 (absorbance ratio at absorption maximum after/before storage stability test)” value [3] was 1.01 and the “Δλmax(c) (change in absorption maximum wavelength)” value [3] was 0.5 nm.

With Cc1c(/C=N/[N-]c2nc3ccccc3o2)c([O-])n(Cc2ccco2)c(=O)c1C#N.Cc1c(/C=N/[N-]c2nc3ccccc3o2)c([O-])n(Cc2ccco2)c(=O)c1C#N.Cc1c(/C=N/[N-]c2nc3ccccc3o2)c([O-])n(Cc2ccco2)c(=O)c1C#N.Cc1c(/C=N/[N-]c2nc3ccccc3o2)c([O-])n(Cc2ccco2)c(=O)c1C#N.Fc1cccc(-[n+]2ccc(-c3cc[n+](-c4cccc(F)c4)cc3)cc2)c1.[Co+3].[Co+3] [Complex Compound (24)] the “I^a/I^a0 (absorbance ratio at absorption maximum after/before lightfastness test)” value [1] was 0.92, the “I^b/I^b0 (absorbance ratio at absorption maximum after/before moisture- and heat-resistances test)” value [2] was 1.00 and the “Δλmax(b) (change in absorption maximum wavelength)” value [2] was 0.5 nm. For the same compound, the “I^c/I^c0 (absorbance ratio at absorption maximum after/before storage stability test)” value [3] was 1.02 and the “Δλmax(c) (change in absorption maximum wavelength)” value [3] was 0.5 nm.
